From patent publication US12077503B2, “Substituted cyclic amides and their use as herbicides” (FMC CORPORATION, priority 2015, dated 2024)

How the values were obtained:
Type in all cases: in vivo
Kochia (Kochia scoparia) [1] = assay: Test A preemergence; details: Bassia scoparia, pre-emergence, 240 h, 0 to 100 scale where 0 is no effect and 100 is complete control, read-out: Kochia plant response rating
Method in brief: (§1)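 Preemergence directed soil spray on seeded pots, or postemergence application to plants 2–10 cm, one- to two-leaf. Solvent mixture non-phytotoxic, with surfactant. Scored ~10 d later, visually, 0–100 vs untreated.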

[2] = tested on: ragweed (common ragweed, Ambrosia elatior); assay: Test A preemergence; details: Ambrosia artemisiifolia, pre-emergence, 240 h, 0 to 100 scale where 0 is no effect and 100 is complete control, read-out: Ragweed plant response rating
Method in brief: as §1

[3] = tested on: barnyardgrass (Echinochloa crus-galli); assay: Test A preemergence; details: Echinochloa crus-galli, pre-emergence, 240 h, 0 to 100 scale where 0 is no effect and 100 is complete control, read-out: Barnyardgrass plant response rating
Method in brief: as §1

[4] = tested on: giant foxtail (Setaria faberii); assay: Test A preemergence; details: Setaria faberi, pre-emergence, 240 h, 0 to 100 scale where 0 is no effect and 100 is complete control, read-out: Foxtail, Giant plant response rating
Method in brief: as §1

[5] = tested on: pigweed (Amaranthus retroflexus); assay: Test A preemergence; details: Amaranthus retroflexus, pre-emergence, 240 h, 0 to 100 scale where 0 is no effect and 100 is complete control, read-out: Pigweed plant response rating
[6] = tested on: ryegrass, Italian (Italian ryegrass, Lolium multiflorum); assay: Test A preemergence; details: Lolium multiflorum, pre-emergence, 240 h, 0 to 100 scale where 0 is no effect and 100 is complete control, read-out: Ryegrass, Italian plant response rating
Method in brief: as §1

[7] = tested on: sedge, umbrella (small-flower umbrella sedge, Cyperus difformis); assay: Test B flooded paddy test; details: Cyperus difformis, 250 g ai/ha, Flood; 0 to 100 scale where 0 is no effect and 100 is complete control; read-out: Sedge, Umbrella plant response rating
Method in brief: (§2)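 Greenhouse paddy pots with 2-leaf stage plants received compound by direct addition to floodwater 3 cm deep, kept at that level. Scored visually at 13–15 d versus controls (0 no effect; 100 complete control).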

[8] = tested on: barnyardgrass (Echinochloa crus-galli); assay: Test B flooded paddy test; details: Echinochloa crus-galli, 250 g ai/ha, Flood; 0 to 100 scale where 0 is no effect and 100 is complete control; read-out: Barnyardgrass plant response rating
Method in brief: as §2

[9] = tested on: ducksalad (Heteranthera limosa); assay: Test B flooded paddy test; details: Heteranthera limosa, 250 g ai/ha, Flood; 0 to 100 scale where 0 is no effect and 100 is complete control; read-out: Ducksalad plant response rating
Method in brief: as §2

rice (Oryra sativa) = assay: Test B flooded paddy test; details: Oryza sativa, 250 g ai/ha, Flood; 0 to 100 scale where 0 is no effect and 100 is complete control; read-out: Rice plant response rating
Method in brief: as §2

Kochia (Kochia scoparia) [10] = assay: Test A postemergence; details: Bassia scoparia, post-emergence, 240 h
Method in brief: as §1

[11] = tested on: Galium (catchweed bedstraw, Galium aparine); assay: Test A postemergence; details: Galium, post-emergence, 240 h
Method in brief: as §1

[12] = tested on: ragweed (common ragweed, Ambrosia elatior); assay: Test A postemergence; details: Ambrosia artemisiifolia, post-emergence, 240 h, 125 g ai/ha, postemergence, visual injury vs untreated controls after approx. 10 d; 0 = no effect, 100 = complete control; read-out: Ragweed plant response rating (0 to 100 scale)
Method in brief: as §1

[13] = tested on: barnyardgrass (Echinochloa crus-galli); assay: Test A postemergence; details: Echinochloa crus-galli, post-emergence, 240 h
Method in brief: as §1

[14] = tested on: giant foxtail (Setaria faberii); assay: Test A postemergence; details: Setaria faberi, post-emergence, 240 h
Method in brief: as §1

[15] = tested on: pigweed (Amaranthus retroflexus); assay: Test A postemergence; details: Amaranthus retroflexus, post-emergence, 240 h, 125 g ai/ha, postemergence, visual injury vs untreated controls after approx. 10 d; 0 = no effect, 100 = complete control; read-out: Pigweed plant response rating (0 to 100 scale)
Method in brief: as §1

[16] = tested on: ryegrass, Italian (Italian ryegrass, Lolium multiflorum); assay: Test A postemergence; details: Lolium multiflorum, post-emergence, 240 h, 125 g ai/ha, postemergence, visual injury vs untreated controls after approx. 10 d; 0 = no effect, 100 = complete control; read-out: Ryegrass, Italian plant response rating (0 to 100 scale)
Method in brief: as §1

corn (Zea mays) = assay: Test A postemergence; details: Zea mays, post-emergence, 240 h
Method in brief: as §1

[17] = tested on: blackgrass (Alopecurus myosuroides); assay: Test A postemergence; details: Alopecurus myosuroides, post-emergence, 240 h
Method in brief: as §1

[18] = tested on: wheat (Triticum aestivum); assay: Test A postemergence; details: Triticum aestivum, post-emergence, 240 h, 125 g ai/ha, postemergence, visual injury vs untreated controls after approx. 10 d; 0 = no effect, 100 = complete control; read-out: Wheat plant response rating (0 to 100 scale)
Method in brief: as §1

[19] = 125 g ai/ha, preemergence, approx. 10 d

SMILES: CN1C[C@H](c2ccc(C(F)F)cc2)[C@@H](C(=O)Nc2ccccc2S(C)(=O)=O)C1=O [Compound 1175]
- pest or weed control at 31 g/ha (Kochia (Kochia scoparia) [1]; 31 g ai/ha, Preemergence): 20%
- pest or weed control at 125 g/ha (Kochia (Kochia scoparia) [1]; [19]): 50%
- pest or weed control at 31 g/ha ([2]; 31 g ai/ha, Preemergence): 0%
- pest or weed control at 125 g/ha [2, 19]: 20%
- pest or weed control at 31 g/ha ([3]; 31 g ai/ha, Preemergence): 50%
- pest or weed control at 125 g/ha [3, 19]: 90%
- pest or weed control at 31 g/ha ([4]; 31 g ai/ha, Preemergence): 70%
- pest or weed control at 125 g/ha [4, 19]: 90%
- pest or weed control at 31 g/ha ([5]; 31 g ai/ha, Preemergence): 0%
- pest or weed control at 125 g/ha [5, 19]: 40%
- pest or weed control at 31 g/ha ([6]; 31 g ai/ha, Preemergence): 0%
- pest or weed control at 125 g/ha [6, 19]: 20%
- pest or weed control at 250 g/ha [7]: 0%
- pest or weed control at 250 g/ha [8]: 65%
- pest or weed control at 250 g/ha [9]: 90%
- pest or weed control at 250 g/ha (rice (Oryra sativa)): 10%
- pest or weed control at 125 g/ha (Kochia (Kochia scoparia) [10]; 125 g ai/ha, postemergence, visual injury vs untreated controls after approx. 10 d, 0 = no effect, 100 = complete control, read-out: Kochia plant response rating (0 to 100 scale)): 0%
- pest or weed control at 31 g/ha (Kochia (Kochia scoparia) [10]; Postemergence, 31 g ai/ha, visual injury after approx. 10 d, 0 to 100 scale, 0 no effect, 100 complete control, read-out: Plant response rating, Kochia): 0%
- pest or weed control at 125 g/ha ([11]; 125 g ai/ha, postemergence, visual injury vs untreated controls after approx. 10 d, 0 = no effect, 100 = complete control, read-out: Galium plant response rating (0 to 100 scale)): 40%
- pest or weed control at 31 g/ha ([11]; Postemergence, 31 g ai/ha, visual injury after approx. 10 d, 0 to 100 scale, 0 no effect, 100 complete control, read-out: Plant response rating, Galium): 20%
- pest or weed control at 125 g/ha [12]: 30%
- pest or weed control at 125 g/ha ([13]; 125 g ai/ha, postemergence, visual injury vs untreated controls after approx. 10 d, 0 = no effect, 100 = complete control, read-out: Barnyardgrass plant response rating (0 to 100 scale)): 90%
- pest or weed control at 31 g/ha ([13]; Postemergence, 31 g ai/ha, visual injury after approx. 10 d, 0 to 100 scale, 0 no effect, 100 complete control, read-out: Plant response rating, Barnyardgrass): 50%
- pest or weed control at 125 g/ha ([14]; 125 g ai/ha, postemergence, visual injury vs untreated controls after approx. 10 d, 0 = no effect, 100 = complete control, read-out: Foxtail, Giant plant response rating (0 to 100 scale)): 80%
- pest or weed control at 31 g/ha ([14]; Postemergence, 31 g ai/ha, visual injury after approx. 10 d, 0 to 100 scale, 0 no effect, 100 complete control, read-out: Plant response rating, Foxtail, Giant): 50%
- pest or weed control at 125 g/ha [15]: 20%
- pest or weed control at 125 g/ha [16]: 50%
- plant injury at 125 g/ha (corn (Zea mays); 125 g ai/ha, postemergence, visual injury vs untreated controls after approx. 10 d, 0 = no effect, 100 = complete control, read-out: Corn plant response rating (0 to 100 scale)): 30%
- Corn plant response rating (crop injury, 0 = no effect, 100 = complete kill) at 31 g/ha (corn (Zea mays); Postemergence, 31 g ai/ha, visual injury after approx. 10 d, 0 to 100 scale, 0 no effect, 100 complete control): 0%
- pest or weed control at 125 g/ha ([17]; 125 g ai/ha, postemergence, visual injury vs untreated controls after approx. 10 d, 0 = no effect, 100 = complete control, read-out: Blackgrass plant response rating (0 to 100 scale)): 50%
- pest or weed control at 31 g/ha ([17]; Postemergence, 31 g ai/ha, visual injury after approx. 10 d, 0 to 100 scale, 0 no effect, 100 complete control, read-out: Plant response rating, Blackgrass): 0%
- plant injury at 125 g/ha [18]: 40%
